From ChEMBL document CHEMBL1201862, “PubChem BioAssay data set” (2004)
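Results reflect a 48-hour exposure of cells in 96-well plates to compound at five concentrations. GI50: concentration for 50% inhibition of growth.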 Calls of active or inactive are those of the source. Cut-off read from the data, not from the text of the source: active = GI50 up to about 1.1 µM and inactive = higher.

Legend:
Assay in all cases: NCI anticancer screen, dose series, 48 h
ACHN = test system: ACHN
CCRF-CEM = test system: CCRF-CEM
EKVX = test system: EKVX
HOP-92 = test system: HOP-92
IGROV-1 = test system: IGROV-1
KM12 = test system: KM12
LOX IMVI = test system: LOX IMVI
MCF7 = test system: MCF7
Malme-3M = test system: Malme-3M
NCI-H522 = test system: NCI-H522
OVCAR-3 = test system: OVCAR-3
OVCAR-4 = test system: OVCAR-4
PC-3 = test system: PC-3
SF-295 = test system: SF-295
SK-MEL-2 = test system: SK-MEL-2
SN12C = test system: SN12C
U-251 = test system: U-251
UACC-257 = test system: UACC-257
UO-31 = test system: UO-31
T47D = test system: T47D

Row | SMILES | GI50 (ACHN) | GI50 (CCRF-CEM) | GI50 (EKVX) | GI50 (HOP-92) | GI50 (IGROV-1) | GI50 (KM12) | GI50 (LOX IMVI) | GI50 (MCF7) | GI50 (Malme-3M) | GI50 (NCI-H522) | GI50 (OVCAR-3) | GI50 (OVCAR-4) | GI50 (PC-3) | GI50 (SF-295) | GI50 (SK-MEL-2) | GI50 (SN12C) | GI50 (U-251) | GI50 (UACC-257) | GI50 (UO-31) | GI50 (T47D)
1 | FC(F)(F)c1ccc(C2=N/S(c3ccccc3)=N\C(c3ccc(C(F)(F)F)cc3)=N/S(c3ccccc3)=N\2)cc1 (stereo not given) | > 100 µM (inactive) | > 100 µM (inactive) | > 100 µM (inactive) | > 100 µM (inactive) | > 100 µM (inactive) | > 100 µM (inactive) | > 100 µM (inactive) | > 100 µM (inactive) | > 100 µM (inactive) | > 100 µM (inactive) | > 100 µM (inactive) | > 100 µM (inactive) | > 100 µM (inactive) | > 100 µM (inactive) | > 100 µM (inactive) | > 100 µM (inactive) | > 100 µM (inactive) | > 100 µM (inactive) | > 100 µM (inactive) | –
2 | COc1ccc(CNC(=O)[C@H](Cc2ccc(O)cn2)NC(C)=O)cc1 | > 100 µM (inactive) | > 100 µM (inactive) | 87.7 µM (inactive) | – | > 100 µM (inactive) | > 100 µM (inactive) | > 100 µM (inactive) | > 100 µM (inactive) | – | > 100 µM (inactive) | > 100 µM (inactive) | > 100 µM (inactive) | > 100 µM (inactive) | > 100 µM (inactive) | > 100 µM (inactive) | > 100 µM (inactive) | > 100 µM (inactive) | > 100 µM (inactive) | > 100 µM (inactive) | > 100 µM (inactive)
3 | NC(=S)C1=C(N)Oc2c(c(=O)oc3ccccc23)C1c1ccc(Br)cc1 (stereo not given) | > 100 µM (inactive) | 36.3 µM (inactive) | > 100 µM (inactive) | 40 µM (inactive) | > 100 µM (inactive) | – | > 100 µM (inactive) | > 100 µM (inactive) | > 100 µM (inactive) | 74.8 µM (inactive) | > 100 µM (inactive) | > 100 µM (inactive) | > 100 µM (inactive) | > 100 µM (inactive) | > 100 µM (inactive) | > 100 µM (inactive) | > 100 µM (inactive) | > 100 µM (inactive) | > 100 µM (inactive) | –
4 | S=C(/N=c1/sc(Nc2ccccc2)nc2sc3c(c12)CCCC3)Nc1ccccc1 | > 62.5 µM (inactive) | > 62.5 µM (inactive) | > 62.5 µM (inactive) | > 62.5 µM (inactive) | > 62.5 µM (inactive) | > 62.5 µM (inactive) | > 62.5 µM (inactive) | > 62.5 µM (inactive) | > 62.5 µM (inactive) | > 62.5 µM (inactive) | > 62.5 µM (inactive) | > 62.5 µM (inactive) | > 62.5 µM (inactive) | – | > 62.5 µM (inactive) | > 62.5 µM (inactive) | > 62.5 µM (inactive) | > 62.5 µM (inactive) | > 62.5 µM (inactive) | –
5 | COc1c(Sc2c(SCSc3cnc4ccccc4c3Sc3cnc4ccccc4c3OC)cnc3ccccc23)cnc2ccccc12 | 82.6 µM (inactive) | > 100 µM (inactive) | 35.7 µM (inactive) | 13.2 µM (inactive) | 8.13 µM (inactive) | > 100 µM (inactive) | > 100 µM (inactive) | – | – | 19.2 µM (inactive) | > 100 µM (inactive) | 37.2 µM (inactive) | > 100 µM (inactive) | > 100 µM (inactive) | > 100 µM (inactive) | > 100 µM (inactive) | 30.1 µM (inactive) | > 100 µM (inactive) | 24.7 µM (inactive) | > 100 µM (inactive)
6 | S=C1NCCN1C(=S)NC1CCCCC1 | 32.7 µM (inactive) | 45.2 µM (inactive) | 29.1 µM (inactive) | 24.8 µM (inactive) | 68.1 µM (inactive) | 24.4 µM (inactive) | 35.8 µM (inactive) | 43.1 µM (inactive) | 20.8 µM (inactive) | 22.1 µM (inactive) | 31.3 µM (inactive) | 19.3 µM (inactive) | – | 37.2 µM (inactive) | 34.8 µM (inactive) | 38.2 µM (inactive) | 37 µM (inactive) | 26.2 µM (inactive) | 26.7 µM (inactive) | 27.7 µM (inactive)
7 | COCC(C#N)NC1CC(OC2CC(O)(C(=O)CO)Cc3c(O)c4c(c(O)c32)C(=O)c2c(OC)cccc2C4=O)OC(C)C1O (stereo not given) | 0.0581 µM (active) | 0.0202 µM (active) | 0.5 µM (active) | 0.393 µM (active) | 0.0404 µM (active) | 0.103 µM (active) | 0.0292 µM (active) | < 0.01 µM (active) | 0.0344 µM (active) | 0.0321 µM (active) | 0.153 µM (active) | 0.282 µM (active) | 0.0942 µM (active) | 0.0966 µM (active) | 0.136 µM (active) | 0.0422 µM (active) | 0.0286 µM (active) | 0.091 µM (active) | 0.442 µM (active) | –
8 | COc1ccc(C(=O)/C=C/c2ccc(OCCCCCCCCCCOc3ccc(/C=C/C(=O)c4ccc(OC)cc4)cc3)cc2)cc1 | > 100 µM (inactive) | > 100 µM (inactive) | > 100 µM (inactive) | – | > 100 µM (inactive) | > 100 µM (inactive) | – | > 100 µM (inactive) | – | – | – | > 100 µM (inactive) | > 100 µM (inactive) | > 100 µM (inactive) | > 100 µM (inactive) | > 100 µM (inactive) | > 100 µM (inactive) | > 100 µM (inactive) | > 100 µM (inactive) | > 100 µM (inactive)
9 | O=C1NC(=S)N(c2ccccc2)C1=O | > 100 µM (inactive) | > 100 µM (inactive) | > 100 µM (inactive) | > 100 µM (inactive) | > 100 µM (inactive) | > 100 µM (inactive) | > 100 µM (inactive) | – | > 100 µM (inactive) | 3.79 µM (inactive) | – | > 100 µM (inactive) | > 100 µM (inactive) | > 100 µM (inactive) | > 100 µM (inactive) | > 100 µM (inactive) | > 100 µM (inactive) | > 100 µM (inactive) | > 100 µM (inactive) | > 100 µM (inactive)
10 | O=[N+]([O-])c1ccc2oc(=N/c3ccccc3)/c(=N\c3ccccc3)[nH]c2c1 | 24.7 µM (inactive) | > 100 µM (inactive) | 70.5 µM (inactive) | 28.2 µM (inactive) | 32.1 µM (inactive) | 37.5 µM (inactive) | 88.1 µM (inactive) | – | 87.1 µM (inactive) | 6.97 µM (inactive) | – | 37.9 µM (inactive) | 65.3 µM (inactive) | 47.9 µM (inactive) | 36.7 µM (inactive) | 46.5 µM (inactive) | 40.9 µM (inactive) | > 100 µM (inactive) | 77.1 µM (inactive) | > 100 µM (inactive)
11 | Cc1ncc([N+](=O)[O-])n1CCNC(=O)CCCCCn1ccnc1[N+](=O)[O-] | > 100 µM (inactive) | > 100 µM (inactive) | – | – | > 100 µM (inactive) | > 100 µM (inactive) | – | > 100 µM (inactive) | > 100 µM (inactive) | > 100 µM (inactive) | > 100 µM (inactive) | – | > 100 µM (inactive) | > 100 µM (inactive) | > 100 µM (inactive) | > 100 µM (inactive) | > 100 µM (inactive) | > 100 µM (inactive) | > 100 µM (inactive) | > 100 µM (inactive)
12 | COc1cc(/C=C2/SC(c3ccccc3)N(c3ccccc3Cl)C2=O)cc(OC)c1OC (stereo not given) | 58.1 µM (inactive) | 12.2 µM (inactive) | 44.1 µM (inactive) | 26.1 µM (inactive) | – | 26.8 µM (inactive) | 17.6 µM (inactive) | 35.9 µM (inactive) | 23.4 µM (inactive) | 14.9 µM (inactive) | 27.9 µM (inactive) | 41.6 µM (inactive) | – | 32.1 µM (inactive) | 33.9 µM (inactive) | 23.7 µM (inactive) | 23.1 µM (inactive) | 42.2 µM (inactive) | 35.4 µM (inactive) | 29.2 µM (inactive)
13 | CN1N(c2ccccc2)C(=O)C2=NC=C(C#N)C(=N)C21C (stereo not given) | 97.7 µM (inactive) | > 100 µM (inactive) | > 100 µM (inactive) | > 100 µM (inactive) | > 100 µM (inactive) | > 100 µM (inactive) | > 100 µM (inactive) | > 100 µM (inactive) | > 100 µM (inactive) | > 100 µM (inactive) | > 100 µM (inactive) | > 100 µM (inactive) | > 100 µM (inactive) | > 100 µM (inactive) | > 100 µM (inactive) | > 100 µM (inactive) | > 100 µM (inactive) | > 100 µM (inactive) | > 100 µM (inactive) | –
14 | CCCC(CCN)(CCN)[N+](=O)[O-] | > 100 µM (inactive) | > 100 µM (inactive) | > 100 µM (inactive) | – | > 100 µM (inactive) | > 100 µM (inactive) | – | – | > 100 µM (inactive) | > 100 µM (inactive) | – | > 100 µM (inactive) | > 100 µM (inactive) | > 100 µM (inactive) | > 100 µM (inactive) | > 100 µM (inactive) | > 100 µM (inactive) | > 100 µM (inactive) | > 100 µM (inactive) | > 100 µM (inactive)
15 | CC(=O)OC1C(Oc2c(C)cc3c(c2O)[C@@H](C)CC[C@@H]3[C@@H](C)CCC=C(C)C)OCC(O)C1O (stereo not given in full) | 20.2 µM (inactive) | 22.8 µM (inactive) | – | – | 19.1 µM (inactive) | 15.9 µM (inactive) | 18.2 µM (inactive) | 20.9 µM (inactive) | – | 21.2 µM (inactive) | 15.7 µM (inactive) | – | 20.3 µM (inactive) | 19.4 µM (inactive) | 25.3 µM (inactive) | 17.5 µM (inactive) | 17.3 µM (inactive) | 18.4 µM (inactive) | 17.3 µM (inactive) | 22.4 µM (inactive)
